How the values were obtained:
EcTrpRS [1] = target: T1, EcTrpRS (Escherichia coli, UniProt P00954); experiment: ITC, one-site model; cocrystal structure; format: binding; settings: PBS, 15 °C
T1 construct: gene trpS; full-length (domains span residues 1-334), C-terminal His6 tag, pET20b(+), E. coli BL21(DE3); homodimer, as purified carries one copurified TrpAMP per dimer

EcTrpRS [2] = target: T1, EcTrpRS; experiment: ATP consumption assay (Kinase-Glo), tRNA-dependent; format: biochemical
SaTrpRS = target: T2, SaTrpRS (Staphylococcus aureus, UniProt P67593); experiment: ITC, one-site model; format: binding; settings: PBS, 15 °C
T2 construct: gene trpS; residues 1-329, expressed and purified similarly to EcTrpRS (His-tagged, E. coli BL21(DE3))
T2 sequence (P67593 whole entry, the tested form may be a part): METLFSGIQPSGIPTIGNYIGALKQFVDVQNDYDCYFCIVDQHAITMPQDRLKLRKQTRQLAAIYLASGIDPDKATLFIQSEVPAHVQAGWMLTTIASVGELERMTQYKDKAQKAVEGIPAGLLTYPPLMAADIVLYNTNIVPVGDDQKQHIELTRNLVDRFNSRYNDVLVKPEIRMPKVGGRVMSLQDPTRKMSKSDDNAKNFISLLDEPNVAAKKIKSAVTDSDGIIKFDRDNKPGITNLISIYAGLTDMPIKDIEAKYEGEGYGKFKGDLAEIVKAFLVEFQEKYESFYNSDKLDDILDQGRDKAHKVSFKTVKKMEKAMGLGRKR

EcTrpRS [3] = target: T1, EcTrpRS; experiment: ITC, one-site model; format: binding
EcTrpRS [4] = target: T1, EcTrpRS; experiment: crystal structure, copurified; format: binding; settings: intermediate product in active site of closed subunit; 1.80 Å

For `NC(=O)c1cccc2cn(-c3ccc([C@@H]4CCCNC4)cc3)nc12` [niraparib], the Kd (EcTrpRS [1]; L-Trp site of the open subunit, blocked by high L-Trp) was “~ around 20 μM”, the IC50 (EcTrpRS [2]) was 148 µM and the Kd (SaTrpRS) was “~ around 20 μM”.
`Nc1ncnc2c1ncn2[C@@H]1O[C@H](COP(=O)(O)OP(=O)(O)OP(=O)(O)O)[C@@H](O)[C@H]1O` [ATP] showed a Kd (EcTrpRS [3]) of 305 ± 49.9 µM.
In the case of `N[C@@H](Cc1c[nH]c2ccccc12)C(=O)O` [L-Trp], the Kd (EcTrpRS [1]; measured for open-closed (one TrpAMP bound) and apo open-open enzyme, active site of open subunit) is reported as “ITC measurements of L-Trp to ‘open-closed’ asymmetric EcTrpRS and ‘open-open’ apo EcTrpRS showed similar binding”.
With `Nc1ncnc2c1ncn2[C@@H]1O[C@H](COP(=O)(O)OC(=O)[C@@H](N)Cc2c[nH]c3ccccc23)[C@@H](O)[C@H]1O` [TrpAMP] the “crystal structure, copurified” value (EcTrpRS [4]) was “A copurified tryptophanyl adenylate (TrpAMP)”.

From article PMC10201369, “An asymmetric structure of bacterial TrpRS supports the half-of-the-sites catalytic mechanism and facilitates antimicrobial screening” (Nucleic Acids Research, 2023)
